In patent US7629172B2, “Entrapped binding protein as biosensors” (Becton, Dickinson and Company, priority 2002, dated 2009):

B1: E149C, M182C, A213C, L238S: GGBP-H6 NBD mutant with four amino acid substitutions (protein, UniProt P0AEE5 24-332, looked up, variant E149C M182C A213C L238S)
D-galactose/methyl-galactoside …: ADTRIGVTIYKYDDNFMSVVRKAIEQDAKAAPDVQLLMNDSQNDQSKQNDQIDVLLAKGVKALAINLVDPAAAGTVIEKARGQNVPVVFFNKEPSRKALDSYDKAYYVGTDSKESGIIQGDLIAKHWAANQGWDLNKDGQIQFVLLKGCPGHPDAEARTTYVIKELNDKGIKTEQLQLDTACWDTAQAKDKMDAWLSGPNANKIEVVIANNDCMAMGAVEALKAHNKSSIPVFGVDASPEALALVKSGALAGTVLNDANNQAKATFDLAKNLADGKGAADGTNWKIDNKVVRVPYVGVDKDNLAEFSKK
modifications: His6 tag, NBD fluorophore label
notes: GGBP-H6 NBD mutant with four amino acid substitutions

Tests used:
[1] = Change in fluorescence of reporter-labeled GGBP mutants in solution on glucose addition; assay type: biochemical; conditions: GGBP-H6 NBD
Protocol: Labeled mutated maltose binding protein S337C MBP with fluorophore reporter probe NBD used herein in accordance with the procedure set forth by Cass, A. et al. (Anal. Chem. 1994, 66, 3840-3847). Fluorescence emission spectra of mutated, labeled protein was measured using an SLM Aminco fluorimeter (Ontario, Canada) with slit settings of 8 and 4 for excitation and settings of 5 and 5 on the MC250 emission monochromator to compare the ligand-binding performance of the entrapped fluorophore-labeled proteins in various matrixes to the performance of the same proteins in solution. The initial fluorescence emission intensity is defined as Io. The relative ratio of the emission intensity maxima in the presence of the protein's respective ligand (If) to the ligand's absence (Io) is defined as ΔF.
This example describes generically the labeling of binding protein with reporter probe. An aliquot of mutant GGBP containing cysteine (4.0 nmol) in PBS was treated with 2 mM dithiothreitol (5 μL, 10 nmol) for 30 min. A stock solution of N,N′-dimethyl-N-(iodoacetyl)-N′-(7-nitrobenz-2-oxa-1,3-diazol-4-yl)ethylenediamine (IANBD amide, 0.5 mg) was prepared in DMSO (100 μL, 11.9 mM) and 3.36 μL (40 nmol) was added to the protein. The reaction proceeded at room temperature for 4 h on a Dynal rotamix in the dark. The labeled protein was purified by gel filtration on a NAP-5 column (Amersham Pharmacia). The labeling rations were determined using an estimated extinction coefficient (50 mM^−1 cm^−1) for GGBP that was calculated in GeneWorks 2.45 (IntelliGenetics), ε478 (IANBD amide)=25 mM^−1cm^−1), and a measurement of O.D. for a standard solution of IANBD amide at 280 nm and 478 nm. The dye concentration in the protein was calculated as […]. The absorbance of protein at 280 nm was calculated as Aprot(280)=Atotal(280)−Adye(280), where Adye(280)=A478×(A280/A478)standard. The concentration of protein was then […].

[2] = Binding constant (Kd) by titration of glucose into labeled protein solution
Protocol: (§1) Binding constants were determined by titration of increasing concentrations of glucose into a protein solution with mixing following each addition of glucose. Slit settings were the same as listed above. The Kd was determined from the following relationships as adapted from Pisarchick and Thompson (1990):
where F is fluorescence intensity, Finf is fluorescence at infinity, F0 is fluorescence at zero glucose, and x is the free concentration of glucose ([Glc]free) as determined by the relationship:
where [Glc]tot and [Prot]tot are the total concentrations of glucose and protein, respectively.

[3] = ΔF of H152 GGBP-H6 NBD entrapped in sol-gel matrixes vs solution; assay type: biochemical; conditions: ratio If/Io, matrix containing H152 GGBP-H6 NBD
[4] = ΔF of labeled GGBP entrapped in optimized GMSC sol-gel (96 well microplate); assay type: biochemical
Protocol: (§2) Entrapment Of Binding Proteins In GMSC Sol-Gels Containing Functionalized Silicone Additives (FSA) and Polymers. This example describes the addition of polymer and organic polyol additives to optimize the GMSC sol-gels for entrapping binding proteins to both maintain and enhance their spectral properties upon ligand binding. The binding proteins were labeled with a fluorophore (as described in example 3). The protein solutions were added during the final hydrolysis/gelling step described previously to produce final concentrations of 2-4 μM protein within the sol-gel. The polymer additives and FSA's were obtained from Sigma-Aldrich Chemicals (St. Louis, Mo.). Polymer additives were evaluated in amounts between 0 to about 30 wt. Functionalized silicone additives (FSA) were evaluated as additives to the GMSC sol-gels in amounts from 0 to about 0.6% mole ratio. Thus, rotary evaporation of the GMSC reagent to remove methanol from its storage solution was followed by reconstitution in water in a 1:1 ratio by weight. […] Fluorescence emission was measured with a Varian Cary Eclipse scanning fluorometer with microwell plate adapter (Varian Instruments, Victoria, Australia). Excitation was at 475 nm and emission recorded from 500 to 600 nm, typically monitoring emission maximum peak fluorescence. […]

[5] = Kd of labeled GGBP entrapped in optimized GMSC sol-gel; assay type: binding; conditions: protein entrapped in optimized sol-gel formulation
Protocol: as §1
as §2, with “The polymer additives and FSA's were obtained from Sigma-Aldrich Chemicals (St. Louis, Mo.).” left out, “ratio.” for “ratio. Thus, rotary evaporation of the GMSC reagent to remove methanol from its storage solution was followed by reconstitution in water in a 1:1 ratio by weight.”

[6] = GGBP H152C entrapped in UV cross-linked SbQ-PVA hydrogel, glucose challenge; assay type: biochemical
Protocol: This example describes the entrapment of GGBP H152C in UV cross-linked hydrogel matrix and the effect of the matrix on the fluorescence change and binding affinity. In this experiment SbQ-PVA from Polysciences Inc. was added 100 ul of PBS buffer and mixed for one hour to mix in a rotary mixer. 80 ul of this solution was then mixed with 20 ul of labeled protein. Final protein concentration was spectroscopically determined to be 0.15 mg/ml. After mixing, aliquiots were dispensed into 96-well plates and dried in a chamber maintained at 20% humidity for 12 h followed by curing with UV light. Wells containing protein encapsulated in matrix were challenge with 2 ul of 10 mM glucose and compared to protein solution without matrix having equivalent protein loading.

[7] = GGBP L238C/A213C in dialysis membrane on fiber optic, reversibility of signal; assay type: biochemical; conditions: cycles between PBS buffer and 2 mM, 20 mM glucose; emission 521 nm; FIG. 4
Protocol: This example describes the immobilization of a biosensor of the instant invention into a dialysis membrane matrix and the ability of the matrix to provide reversible and continuous readings. Using a Varian Eclipse fluorimeter with a fiber optic attachment, GGBP L238C/A213C protein (2 μM in PBS buffer) entrapped within a dialysis membrane having a molecular cut-off of 3500 Daltons affixed to the distal end of the fiber. Solutions were prepared containing PBS buffer, 2 mM, and 20 mM glucose in PBS buffer. With the probe in PBS solution, readings were recorded at 0.02 seconds intervals of the emission wavelength 521 nm, followed by insertion of the fiber into the glucose solutions.

[8] = from 0 to 1 mM Glc at 0.5 μM [NBD]
[9] = GGBP-H6 NBD, solution, measured at 0.1 μM [dye], read-out: Solution Kd
[10] = protein in solution, read-out: Kd (mM) [solution value]

Molecule | Δ F(%) [1, 8] [%] | Kd [2, 9] [µM] | further results
D287C: GGBP-H6 NBD mutant, cysteine substituted for aspartic acid at position 287 | 4 |  | 
E149C, L238S: GGBP-H6 NBD double mutant |  | 80 | 
L238C: GGBP-H6 NBD mutant, cysteine substituted for leucine at position 238 |  |  | Δ F(%) ([1]; measured from 0 to 100 mM Glc): +3%
E149C, A213R, L238S: GGBP-H6 NBD triple mutant | 500 | 35000 | 
H 152 C GGBP-NBD: glucose/galactose binding protein with cysteine at position 152, His6 tag, labeled with NBD |  |  | Kd [2, 10]: 70 µM; ΔF (10 mM Glucose) [3]: 1.53; ΔF (enhancement vs. solution) ([4]; sugar challenge 10 mM glucose): 2.93x; Kd [5]: 360 µM; Kd of the entrapped protein ([6]; SbQ-PVA UV cross-linked hydrogel): comparable to that obtained in solution; response to the analyte (fluorescence) vs solution ([6]; SbQ-PVA hydrogel, 10 mM glucose challenge, FIG. 3): equivalent to that obtained in solution
R292C: GGBP-H6 NBD mutant, cysteine substituted for arginine at position 292 |  | 0.8 | 
K137C: GGBP-H6 NBD mutant, cysteine substituted for lysine at position 137 |  | 0.04 | 
D14C: GGBP-H6 NBD mutant, cysteine substituted for aspartic acid at position 14 | 1 |  | 
E149C, N256S: GGBP-H6 NBD double mutant | 1 |  | 
S112C, L238S: GGBP-H6 NBD double mutant | 6 |  | 
E149C, A213S, L238S: GGBP-H6 NBD triple mutant | 480 | 470 | 
H152C, A213S: GGBP-H6 NBD double mutant | 100 | 160 | 
A213C, L238C: GGBP-H6 NBD double mutant, cysteines at positions 213 and 238 | 24 | 6000 | Δ F(%) ([1]; measured from 0 to 100 mM Glc): 67%; Kd [2, 10]: 6000 µM; ΔF (enhancement vs. solution) ([4]; sugar challenge 100 mM glucose): 2.36x; Kd [5]: 2200 µM; reversibility of signal [7]: return of initial signal
E149C, A213R: GGBP-H6 NBD double mutant |  | 1000 | 
N43C: GGBP-H6 NBD mutant, cysteine substituted for asparagine at position 43 | 40 | 0.2 | 
wild type: wild type E. coli galactose/glucose binding protein (GGBP-H6), intrinsic fluorescence [reference compound] |  | 0.2 | 
K113C: GGBP-H6 NBD mutant, cysteine substituted for lysine at position 113 | 15 |  | 
G74C: GGBP-H6 NBD mutant, cysteine substituted for glycine at position 74 |  | 0.9 | 
V19C: GGBP-H6 NBD mutant, cysteine substituted for valine at position 19 |  | 0.1 | 
E149C: GGBP-H6 NBD mutant, cysteine substituted for glutamic acid at position 149 | 300 | 0.2 | 
Y107C: GGBP-H6 NBD mutant, cysteine substituted for tyrosine at position 107 |  | 1 | 
K11C: GGBP-H6 NBD mutant, cysteine substituted for lysine at position 11 | 10 |  | 
B1 | 200 |  | 
